A word on the EC50: it is the midpoint of the concentration-response curve.

In series [1] the target is T1, SERT (Rattus norvegicus, UniProt P31652).
T1 construct: Spinal cords were dissected for ex vivo transporter occupancy and PK assessments from the same animals; from tissue; host or cells: lumbar spinal cord of orally dosed male Sprague Dawley rats
Nature of the series: Ex vivo transporter occupancy in rat spinal cord (PK/PD model), SERT. How it is done:
(§1) Adult male Sprague Dawley rats (Charles River) were housed under controlled laboratory conditions (temperature at 21±1° C.) on a 12:12 hour light-dark cycle. Animals were given free access to food and water upon arrival to the facility and animals were acclimatized to their holding room for at least 48 hours. Animals were fasted but allowed free access to water for 15-18 hours prior to dosing.
(§2) Rats (n=6/timepoint/dose level) received a single oral dose of 4-[2-(2,4,6-trifluorophenoxymethyl)phenyl]piperidine (0.3, 1, 5, 10, 30, and 60 mg/kg) and were euthanized by decapitation at specified time points (0.5, 2, 4, 6, and 8 hr for 5 mg/kg dose level; 2 hr for 0.3, 1, 10, 30, and 60 mg/kg dose levels) post-administration. Spinal cords were dissected for ex vivo transporter occupancy and PK assessments from the same animals. The spinal cord was harvested by hydraulic extrusion using phosphate-buffered saline, and the lumbar segment dissected and frozen on dry ice. The remaining spinal cord segments were collected and homogenized in water (25% w/w) for PK analysis. All samples were stored at −80° C. until analysis.
A kinetic radioligand binding assay was used to determine NET and SERT occupancy in rat spinal cord, as described previously in Bourdet et al., J. Pharm. Exp. Ther. (2012) 341:137-145. […] One- and two-compartment PK models with first-order absorption and elimination were evaluated. […]

The target of series [2] is NET (Rattus norvegicus, UniProt Q9WTR4). Put plainly: Ex vivo transporter occupancy in rat spinal cord (PK/PD model), NET. The following applies: estimate (% CV). The protocol: as §1, §2
NET, sequence (Q9WTR4 1-597): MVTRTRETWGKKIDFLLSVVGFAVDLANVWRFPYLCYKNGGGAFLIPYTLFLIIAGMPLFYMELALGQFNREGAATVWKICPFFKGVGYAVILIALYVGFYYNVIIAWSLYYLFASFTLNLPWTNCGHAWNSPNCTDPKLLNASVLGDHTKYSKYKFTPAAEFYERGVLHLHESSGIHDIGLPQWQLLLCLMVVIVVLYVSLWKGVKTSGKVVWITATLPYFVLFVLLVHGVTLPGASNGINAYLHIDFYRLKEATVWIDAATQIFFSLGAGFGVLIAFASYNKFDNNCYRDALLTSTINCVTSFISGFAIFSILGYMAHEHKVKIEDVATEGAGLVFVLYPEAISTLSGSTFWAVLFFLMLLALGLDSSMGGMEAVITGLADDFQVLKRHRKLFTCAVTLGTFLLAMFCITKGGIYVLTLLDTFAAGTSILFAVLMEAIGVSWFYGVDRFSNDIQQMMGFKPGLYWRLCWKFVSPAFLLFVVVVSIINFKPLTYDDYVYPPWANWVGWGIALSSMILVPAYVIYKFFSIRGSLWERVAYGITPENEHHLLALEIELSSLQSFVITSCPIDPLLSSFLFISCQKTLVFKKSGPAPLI
A kinetic radioligand binding assay was used to determine NET and SERT occupancy in rat spinal cord, as described previously in Bourdet et al., J. Pharm. Exp. Ther. (2012) 341:137-145. PK/PD parameters were estimated by a compartmental modeling approach (WinNonlin Version 5.0.1, Pharsight Corporation). One- and two-compartment PK models with first-order absorption and elimination were evaluated. The one-compartment model was selected. The pharmacodynamics model was an effect compartment Emax model linked directly to the central PK compartment (WinNonlin PK Model 3, PD Model 101). Selection of models was based upon best fit in terms of visual inspection, Akaike Information Criteria, and weighted residual sum of squares using the Gauss-Newton minimization method.

Series [3] deals with CYP2D6 (Homo sapiens, UniProt P10635). The conditions noted are these: cited from earlier work.
CYP2D6, sequence (P10635 whole entry): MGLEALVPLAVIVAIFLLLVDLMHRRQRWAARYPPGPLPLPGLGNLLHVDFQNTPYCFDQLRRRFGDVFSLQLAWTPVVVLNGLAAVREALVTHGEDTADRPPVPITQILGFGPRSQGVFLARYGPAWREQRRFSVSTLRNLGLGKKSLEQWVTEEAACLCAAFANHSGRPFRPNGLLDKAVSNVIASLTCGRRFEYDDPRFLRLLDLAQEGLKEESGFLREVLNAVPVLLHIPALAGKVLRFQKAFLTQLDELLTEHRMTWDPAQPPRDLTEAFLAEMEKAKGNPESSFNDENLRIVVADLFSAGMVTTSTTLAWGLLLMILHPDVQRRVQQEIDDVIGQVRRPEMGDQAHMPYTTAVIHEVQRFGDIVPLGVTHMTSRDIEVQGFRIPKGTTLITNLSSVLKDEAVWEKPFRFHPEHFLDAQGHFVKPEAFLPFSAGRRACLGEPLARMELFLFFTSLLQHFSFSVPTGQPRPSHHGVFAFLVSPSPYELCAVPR
In series [4] the target is CYP3A4 (Homo sapiens, UniProt P08684). The conditions noted are these: cited from earlier work.
CYP3A4, sequence (P08684 whole entry): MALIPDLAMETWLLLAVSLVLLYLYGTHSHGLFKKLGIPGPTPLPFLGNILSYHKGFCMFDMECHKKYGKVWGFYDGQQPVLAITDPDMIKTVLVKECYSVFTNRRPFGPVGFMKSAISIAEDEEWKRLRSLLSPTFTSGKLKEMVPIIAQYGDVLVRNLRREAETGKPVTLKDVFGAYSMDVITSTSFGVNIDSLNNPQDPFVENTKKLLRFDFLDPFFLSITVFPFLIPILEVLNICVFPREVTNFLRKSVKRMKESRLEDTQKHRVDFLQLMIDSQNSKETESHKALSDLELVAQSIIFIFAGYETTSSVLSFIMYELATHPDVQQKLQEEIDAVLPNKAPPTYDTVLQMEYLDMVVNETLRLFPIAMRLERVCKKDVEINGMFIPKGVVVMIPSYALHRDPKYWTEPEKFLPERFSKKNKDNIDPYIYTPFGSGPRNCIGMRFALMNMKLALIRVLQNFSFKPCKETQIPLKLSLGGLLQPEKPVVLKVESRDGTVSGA

T1 sequence (P31652 whole entry): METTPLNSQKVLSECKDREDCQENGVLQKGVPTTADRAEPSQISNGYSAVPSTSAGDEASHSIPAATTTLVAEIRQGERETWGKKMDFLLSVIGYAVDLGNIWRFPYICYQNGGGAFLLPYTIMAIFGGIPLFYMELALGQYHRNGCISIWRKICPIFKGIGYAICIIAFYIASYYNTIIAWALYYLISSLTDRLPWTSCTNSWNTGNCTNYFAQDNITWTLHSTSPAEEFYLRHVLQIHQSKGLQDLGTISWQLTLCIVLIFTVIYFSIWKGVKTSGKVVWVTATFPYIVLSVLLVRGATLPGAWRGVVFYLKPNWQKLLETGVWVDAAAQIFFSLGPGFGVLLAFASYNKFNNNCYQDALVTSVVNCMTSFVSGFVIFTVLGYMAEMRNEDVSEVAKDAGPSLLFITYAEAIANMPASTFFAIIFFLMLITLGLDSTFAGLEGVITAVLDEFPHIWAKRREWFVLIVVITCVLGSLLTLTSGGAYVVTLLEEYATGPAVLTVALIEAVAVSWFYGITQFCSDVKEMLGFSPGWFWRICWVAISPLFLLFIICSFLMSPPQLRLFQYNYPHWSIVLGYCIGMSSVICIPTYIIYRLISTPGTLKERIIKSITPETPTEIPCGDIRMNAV

Turning to `Fc1cc(F)c(OCc2ccccc2C2CCNCC2)c(F)c1` [4-[2-(2,4,6-trifluorophenoxymethyl)phenyl]piperidine], the EC50 in series [1] (projected from rat, accounting for species differences in plasma protein binding) was 74.4 nM; in series [2] (rat spinal cord) it was 36.4 nM. For the same molecule, the “keo (first-order equilibration rate constant), SERT” value in series [1] (rat, estimate (% CV)) is given as 11.0 (86) hr^−1. Besides, the “Emax (% occupancy), NET” value in series [2] (rat spinal cord, single oral dose) is reported as 92.0 (19) % occupancy. In addition, the “keo (first-order equilibration rate constant), NET” value in series [2] (rat) is 1.78 (57) hr^−1. The “reduction of metabolism by chemical inhibition of CYP2D6” value in series [3] is recorded as 7%. For the same molecule, the “reduction of metabolism by chemical inhibition of CYP3A4” value in series [4] is 34%.

The values above are taken from patent US10238642B2, “Methods for treating neurogenic orthostatic hypotension” (Theravance Biopharma R&D IP, LLC, priority 2016, dated 2019).
